pEC50: −log10 of the molar value. Blank lines part the entries; values can stand above or below the compound they belong to.
Columns and labels:
MiPII with MiNAGK [1] = target: T1, MiPII with MiNAGK (Lobosphaera incisa, UniProt A0A2R4H197); assay: hydroxamate-Fe([…]+) NAGK assay, […] nm; assay type: biochemical; conditions: read-out: % inhibition at 1 mM
T1 construct: gene glnB; same proteins as P2; effector site on PII (209-aa precursor, 52-aa signal peptide removed, N-terminal His-tag kept, 21-kD band); read-out NAGK activity; with Acetylglutamate kinase, chloroplastic
T1 sequence (A0A2R4H197 53-209): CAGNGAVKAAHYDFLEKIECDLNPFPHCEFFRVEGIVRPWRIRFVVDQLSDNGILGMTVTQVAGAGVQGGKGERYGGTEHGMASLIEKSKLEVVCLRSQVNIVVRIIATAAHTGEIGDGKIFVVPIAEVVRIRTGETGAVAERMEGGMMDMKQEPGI
T1 sequence (A0A2R4H194 60-359 partner): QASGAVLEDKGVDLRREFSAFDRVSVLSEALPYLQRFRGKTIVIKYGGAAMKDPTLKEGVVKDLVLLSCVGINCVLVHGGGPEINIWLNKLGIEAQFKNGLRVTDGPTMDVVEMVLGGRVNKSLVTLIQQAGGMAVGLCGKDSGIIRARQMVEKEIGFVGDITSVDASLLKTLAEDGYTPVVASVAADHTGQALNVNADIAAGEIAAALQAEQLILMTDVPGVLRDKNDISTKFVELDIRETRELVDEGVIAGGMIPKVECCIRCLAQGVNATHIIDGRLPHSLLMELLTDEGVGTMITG

MiPII with MiNAGK [2] = target: T1, MiPII with MiNAGK; assay: hydroxamate-Fe([…]+) NAGK assay, […] nm; assay type: biochemical; conditions: read-out: half-maximal effective concentration
[3] = target: recombinant MiPII fused to the His-tag (pET-PII) (Myrmecia incisa); assay: co-IP; purified recombinant MiPII (200 ug) and MiNAGK (400 ug) in 1 mL 50 mM Tris-HCl pH 7.5, 100 mM KCl, with ATP (3 mM) and Mg2+ (6 mM), with or without 2-OG (5 mM); 1 h at room temperature; precipitated with rabbit anti-MiPII polyclonal antibody and protein A Sepharose; SDS-PAGE, Coomassie staining, band intensity by ImageJ
Chain of recombinant MiPII fused to the His-tag (pET-PII) (Myrmecia incisa) (main, as listed by the source): as the sequence (A0A2R4H197 53-209) above

[4] = target: recombinant MiNAGK fused to the His-tag (pET-NAGK) (Myrmecia incisa)
Chain of recombinant MiNAGK fused to the His-tag (pET-NAGK) (Myrmecia incisa) (main, as listed by the source): as the sequence (A0A2R4H194 60-359 partner) above

- inhibition at 1000 µM (MiPII with MiNAGK [1]): ~30%
Compound: O=C(O)CCC(=O)C(=O)O [2-OG]

- pEC50 (MiPII with MiNAGK [2]): ~2.52
Compound: NC(=O)CC[C@H](N)C(=O)O [Gln]

- intensity of the stained MiNAGK band in the precipitate with 2-OG relative to without 2-OG [3]: 0.65 times
Compound: recombinant MiNAGK fused to the His-tag (pET-NAGK) (enzyme)

- specific activity of recombinant MiNAGK with MiPII (10 ug) and Gln (10 mM), 2-OG from 0 to 4 mM; value at 1 mM 2-OG [4]: 30%
Compound: recombinant MiPII fused to the His-tag (pET-PII) (natural protein)

From paper PMC5701185, “Evidence for PII with NAGK interaction that regulates Arg synthesis in the microalga Myrmecia incisa in response to nitrogen starvation” (Scientific Reports, 2017)
